Reference: the supplement of paper PMC11208160

Assay: recombinant UMI read abundance after kanamycin selection (control-corrected) (log10(CPM+1)); higher = more efficient recombination; extreme values may be limits of the assay; sequences stand for … in AGTGCAGAGAAAATCGGCCAGTTTTCTCTGCCTGCAGTCCGCATGCCGTGGGACCCCTTGGGTTCTAACCTGTTGCCTAGATTTATGCAGCGGACTGCCTTTCTCCCAAAGTGATAAACCGG…AGGTTGGTTTCACT; site = the 11-nt donor
Procedure, shortened: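 Reported values are log10(CPM+1) from a pooled Escherichia coli screen of donor and donor-binding-loop pairs for the IS621 bridge recombinase. Selection used IPTG (0.07 mM) plus kanamycin, against unselected plating, each in two replicates. Recombinant UMIs were amplified across the donor–target junction, sequenced, converted to CPM, averaged over replicates and scaled by control-derived factors.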
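Note: IS621 bridge recombinase in Escherichia coli cells against a fixed T5 target plasmid.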

Row | Sequence | recombinant UMI read abundance (log10)
1 | CAAGCGGCATGGACCGGTTTTCCCGGTAATCCGTATTTGTG (site CAAGCGTCTCA) | 1.66
2 | CAAGTAACATGGACCGGTTTTCCCGGTAATCCGTATTTGGG (site CAAGTAACTCC) | 1.53
3 | CAAGTAACATGGACCGGTTTTCCCGGTAATCCGTATTTGGG (site CAAGTCACTCC) | 0.0125
4 | CAAGTAACATGGACCGGTTTTCCCGGTAATCCGTATTTGGG (site CAAGTGACTCC) | 0.0247
5 | CAAGTAACATGGACCGGTTTTCCCGGTAATCCGTATTTGGG (site CAAGTTACTCC) | 0.237
6 | CAAGTCACATGGACCGGTTTTCCCGGTAATCCGTATTTGCG (site CAAGTCACTCA) | 1.27
7 | CAAGTCACATGGACCGGTTTTCCCGGTAATCCGTATTTGCG (site CAAGTCACTCC) | 0.632
8 | CAAGTCACATGGACCGGTTTTCCCGGTAATCCGTATTTGCG (site CAAGTCACTCG) | 2.34
9 | CAAGTCACATGGACCGGTTTTCCCGGTAATCCGTATTTGCG (site CAAGTCACTCT) | 1.63
10 | CAAGTCACATGGACCGGTTTTCCCGGTAATCCGTATTTGGG (site AAAGTCACTCC) | 0.0232
11 | CAAGTCACATGGACCGGTTTTCCCGGTAATCCGTATTTGGG (site CAAATCACTCC) | 0.0224
12 | CAAGTCACATGGACCGGTTTTCCCGGTAATCCGTATTTGGG (site CAACTCACTCC) | 0.177
13 | CAAGTCACATGGACCGGTTTTCCCGGTAATCCGTATTTGGG (site CAAGACACTCC) | 0.0192
14 | CAAGTCACATGGACCGGTTTTCCCGGTAATCCGTATTTGGG (site CAAGCCACTCC) | 0.239
15 | CAAGTCACATGGACCGGTTTTCCCGGTAATCCGTATTTGGG (site CAAGGCACTCC) | 0.0072
16 | CAAGTCACATGGACCGGTTTTCCCGGTAATCCGTATTTGGG (site CAAGTAACTCC) | 0.0617
17 | CAAGTCACATGGACCGGTTTTCCCGGTAATCCGTATTTGGG (site CAAGTCACTAC) | 0.0634
18 | CAAGTCACATGGACCGGTTTTCCCGGTAATCCGTATTTGGG (site CAAGTCACTCA) | 0.0308
19 | CAAGTCACATGGACCGGTTTTCCCGGTAATCCGTATTTGGG (site CAAGTCACTCC) | 0.013
20 | CAAGTCACATGGACCGGTTTTCCCGGTAATCCGTATTTGGG (site CAAGTCACTCG) | 0
21 | CAAGTCACATGGACCGGTTTTCCCGGTAATCCGTATTTGGG (site CAAGTCACTCT) | 0.593
22 | CAAGTCACATGGACCGGTTTTCCCGGTAATCCGTATTTGGG (site CAAGTCACTGC) | 0
23 | CAAGTCACATGGACCGGTTTTCCCGGTAATCCGTATTTGGG (site CAAGTCACTTC) | 0.00273
24 | CAAGTCACATGGACCGGTTTTCCCGGTAATCCGTATTTGGG (site CAAGTCCCTCC) | 0.0287
25 | CAAGTCACATGGACCGGTTTTCCCGGTAATCCGTATTTGGG (site CAAGTCGCTCC) | 0.0204

Row | Sequence | recombinant UMI read abundance (log10)
26 | CAAGTCACATGGACCGGTTTTCCCGGTAATCCGTATTTGGG (site CAAGTCTCTCC) | 0.493
27 | CAAGTCACATGGACCGGTTTTCCCGGTAATCCGTATTTGGG (site CAAGTGACTCC) | 0.0398
28 | CAAGTCACATGGACCGGTTTTCCCGGTAATCCGTATTTGGG (site CAAGTTACTCC) | 0.161
29 | CAAGTCACATGGACCGGTTTTCCCGGTAATCCGTATTTGGG (site CAATTCACTCC) | 0.0165
30 | CAAGTCACATGGACCGGTTTTCCCGGTAATCCGTATTTGGG (site CACGTCACTCC) | 0
31 | CAAGTCACATGGACCGGTTTTCCCGGTAATCCGTATTTGGG (site CAGGTCACTCC) | 0.0212
32 | CAAGTCACATGGACCGGTTTTCCCGGTAATCCGTATTTGGG (site CATGTCACTCC) | 0.0038
33 | CAAGTCACATGGACCGGTTTTCCCGGTAATCCGTATTTGGG (site CCAGTCACTCC) | 0.0443
34 | CAAGTCACATGGACCGGTTTTCCCGGTAATCCGTATTTGGG (site CGAGTCACTCC) | 0.00994
35 | CAAGTCACATGGACCGGTTTTCCCGGTAATCCGTATTTGGG (site CTAGTCACTCC) | 0.0139
36 | CAAGTCACATGGACCGGTTTTCCCGGTAATCCGTATTTGGG (site GAAGTCACTCC) | 0.0173
37 | CAAGTCACATGGACCGGTTTTCCCGGTAATCCGTATTTGGG (site TAAGTCACTCC) | 0.0086
38 | CAAGTCGCATGGACCGGTTTTCCCGGTAATCCGTATTTGGT (site CAAGTCGCTAC) | 1.77
39 | CAAGTGCCATGGACCGGTTTTCCCGGTAATCCGTATTTGTA (site CAAGTGCCTTA) | 1.56
40 | CAAGTTACATGGACCGGTTTTCCCGGTAATCCGTATTTGGG (site CAAGTAACTCC) | 0.277
41 | CAAGTTACATGGACCGGTTTTCCCGGTAATCCGTATTTGGG (site CAAGTCACTCC) | 0.252
42 | CAAGTTACATGGACCGGTTTTCCCGGTAATCCGTATTTGGG (site CAAGTGACTCC) | 0.0286
43 | CAAGTTACATGGACCGGTTTTCCCGGTAATCCGTATTTGGG (site CAAGTTACTCC) | 0.861
44 | CAATCATCATGGACCGGTTTTCCCGGTAATCCGTATTTGAT (site CAATCATCTAT) | 0.435
45 | CAATCATCATGGACCGGTTTTCCCGGTAATCCGTATTTGAT (site CGATCATCTAG) | 0
46 | CAATCATCATGGACCGGTTTTCCCGGTAATCCGTATTTGCC (site CAATCATCTGG) | 0.733
47 | CAATCATCATGGACCGGTTTTCCCGGTAATCCGTATTTGCC (site CGATCATCTAG) | 0
48 | CAATCCTCATGGACCGGTTTTCCCGGTAATCCGTATTTGCC (site CAATCCTCTGG) | 1.54
49 | CAATCCTCATGGACCGGTTTTCCCGGTAATCCGTATTTGCC (site CACTCCTCTGG) | 1.14
50 | CAATCCTCATGGACCGGTTTTCCCGGTAATCCGTATTTGCC (site CAGTCCTCTGG) | 0

Row | Sequence | recombinant UMI read abundance (log10)
51 | CAATCCTCATGGACCGGTTTTCCCGGTAATCCGTATTTGCC (site CATTCCTCTGG) | 0.913
52 | CAATCGGCATGGACCGGTTTTCCCGGTAATCCGTATTTGAC (site CAATCGGCTGT) | 1.77
53 | CAATCTCCATGGACCGGTTTTCCCGGTAATCCGTATTTGCC (site CAATCTCCTGG) | 0
54 | CAATGATCATGGACCGGTTTTCCCGGTAATCCGTATTTGAA (site CAATGATCTTT) | 3.01
55 | CAATGATCATGGACCGGTTTTCCCGGTAATCCGTATTTGAA (site CAATGCTCTTT) | 0.0913
56 | CAATGATCATGGACCGGTTTTCCCGGTAATCCGTATTTGAA (site CAATGGTCTTT) | 0.41
57 | CAATGATCATGGACCGGTTTTCCCGGTAATCCGTATTTGAA (site CAATGTTCTTT) | 0.682
58 | CAATGATCATGGACCGGTTTTCCCGGTAATCCGTATTTGCT (site CAATGATCTAG) | 2.19
59 | CAATGATCATGGACCGGTTTTCCCGGTAATCCGTATTTGCT (site CGATCATCTAG) | 0
60 | CAATGCACATGGACCGGTTTTCCCGGTAATCCGTATTTGAA (site CAATGCACTTT) | 1.97
61 | CAATGCACATGGACCGGTTTTCCCGGTAATCCGTATTTGAA (site CAATGCCCTTT) | 0
62 | CAATGCACATGGACCGGTTTTCCCGGTAATCCGTATTTGAA (site CAATGCGCTTT) | 0.409
63 | CAATGCACATGGACCGGTTTTCCCGGTAATCCGTATTTGAA (site CAATGCTCTTT) | 0.438
64 | CAATGCTCATGGACCGGTTTTCCCGGTAATCCGTATTTGCA (site CAATGCTCTTA) | 1.1
65 | CAATGCTCATGGACCGGTTTTCCCGGTAATCCGTATTTGCA (site CAATGCTCTTC) | 0
66 | CAATGCTCATGGACCGGTTTTCCCGGTAATCCGTATTTGCA (site CAATGCTCTTG) | 2.35
67 | CAATGCTCATGGACCGGTTTTCCCGGTAATCCGTATTTGCA (site CAATGCTCTTT) | 0.353
68 | CAATGCTCATGGACCGGTTTTCCCGGTAATCCGTATTTGGA (site CAATGCTCTTA) | 2.13
69 | CAATGCTCATGGACCGGTTTTCCCGGTAATCCGTATTTGGA (site CAATGCTCTTC) | 2.46
70 | CAATGCTCATGGACCGGTTTTCCCGGTAATCCGTATTTGGA (site CAATGCTCTTG) | 1.83
71 | CAATGCTCATGGACCGGTTTTCCCGGTAATCCGTATTTGGA (site CAATGCTCTTT) | 2.45
72 | CAATTCACATGGACCGGTTTTCCCGGTAATCCGTATTTGCT (site CAATTCACTAG) | 1.32
73 | CAATTCACATGGACCGGTTTTCCCGGTAATCCGTATTTGCT (site CAATTCCCTAG) | 0
74 | CAATTCACATGGACCGGTTTTCCCGGTAATCCGTATTTGCT (site CAATTCGCTAG) | 0.587
75 | CAATTCACATGGACCGGTTTTCCCGGTAATCCGTATTTGCT (site CAATTCTCTAG) | 0
